Results taken from US6720345B1, “Semicarbazone derivatives and their use as thrombopoietin mimetics” (SmithKline Beecham Corporation, priority 1999, dated 2004).

Molecular target: T1, TPO receptor (Homo sapiens, UniProt P40238)
T1 construct: expressed in transfected cells; host or cells: murine BaF3 cells (TPO-responsive line)
T1 sequence (P40238 26-635): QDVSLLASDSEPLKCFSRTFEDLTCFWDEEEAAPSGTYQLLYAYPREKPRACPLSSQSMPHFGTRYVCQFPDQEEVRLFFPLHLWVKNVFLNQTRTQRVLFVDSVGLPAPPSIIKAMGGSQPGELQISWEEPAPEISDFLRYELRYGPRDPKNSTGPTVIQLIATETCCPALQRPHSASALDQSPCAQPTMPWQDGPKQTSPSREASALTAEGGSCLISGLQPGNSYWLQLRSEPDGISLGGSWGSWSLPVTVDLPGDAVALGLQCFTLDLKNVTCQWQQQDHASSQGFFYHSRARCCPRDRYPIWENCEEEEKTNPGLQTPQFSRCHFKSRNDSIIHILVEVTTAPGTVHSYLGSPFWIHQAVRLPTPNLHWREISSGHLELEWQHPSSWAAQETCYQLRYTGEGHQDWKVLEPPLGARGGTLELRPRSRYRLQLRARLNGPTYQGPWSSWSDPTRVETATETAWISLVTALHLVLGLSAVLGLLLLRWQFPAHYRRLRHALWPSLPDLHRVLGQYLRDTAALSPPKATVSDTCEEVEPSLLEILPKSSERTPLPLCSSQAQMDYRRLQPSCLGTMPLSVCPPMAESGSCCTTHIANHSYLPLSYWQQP
Test: Luciferase assay in TPO-responsive BaF3 cell line
Format: cell-based, murine
Conditions: at a concentration of 10 uM
Method: Compounds of the present invention were tested for potency as mimetics of the TPO receptor in a Luciferase assay such as described in Lamb, et al., Nucleic Acids Research 23: 3283-3289 (1995) and Seidel, et al., Proc. Natl. Acad. Sci., USA 92: 3041-3045 (1995) by substituting a TPO-responsive BaF3 cell line (Vigon et al. Proc. Natl. Acad. Sci. USA 1992, 89, 5640-5644) for the HepG2 cells utilized therein. The murine BaF3 cells express TPO receptors and closely match the pattern of STAT (signal transducers and activators of transcription) activation observed in primary murine and human bone marrow cells in response to TPO.

SMILES: O=C1CSC(=S)N1N=Cc1cc(Br)cc(Br)c1O [Compound A, 3-[(2-hydroxy-3,5-dibromophen-1-yl)methyleneamino]-2-thioxothiazolidin-4-one]
- activation, % of control (control is the maximal response to TPO): about 9 % of control
